Source: patent publication US10981958B2, “Peptide modulator of purinergic receptors” (priority 2016, dated 2021)
Where no end group is shown, it is not given here.

Key:
P2X2/3 receptors [1] = target: T1, P2X2/3 receptors (Rattus norvegicus, UniProt P49653+P49654); conditions: agonist sensitivity, dorsal root ganglia neurons; read-out: sensitivity of P2X2/3 receptor to agonist (Kd); cited from earlier work
T1 construct: In the membranes of dorsal root ganglia, along with P2X3 receptors, P2X2 and P2X2/3 receptors are also found; endogenous in cells; host or cells: acutely isolated dorsal root ganglion neurons of 9-12-day Wistar rats
T1 sequence (P49653 1-472): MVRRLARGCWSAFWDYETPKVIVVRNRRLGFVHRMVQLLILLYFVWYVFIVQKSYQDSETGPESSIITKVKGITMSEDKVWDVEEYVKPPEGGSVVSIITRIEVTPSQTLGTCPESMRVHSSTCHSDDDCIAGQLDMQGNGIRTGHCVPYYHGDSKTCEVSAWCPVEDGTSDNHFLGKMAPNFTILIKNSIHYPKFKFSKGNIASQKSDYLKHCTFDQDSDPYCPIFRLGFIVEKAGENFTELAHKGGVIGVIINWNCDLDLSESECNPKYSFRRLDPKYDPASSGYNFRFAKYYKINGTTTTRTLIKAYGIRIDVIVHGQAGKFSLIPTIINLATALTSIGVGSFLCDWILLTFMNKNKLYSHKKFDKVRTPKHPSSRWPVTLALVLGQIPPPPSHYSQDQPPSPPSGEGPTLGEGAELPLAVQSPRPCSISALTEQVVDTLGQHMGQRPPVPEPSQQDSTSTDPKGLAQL
T1 sequence (P49654 1-397): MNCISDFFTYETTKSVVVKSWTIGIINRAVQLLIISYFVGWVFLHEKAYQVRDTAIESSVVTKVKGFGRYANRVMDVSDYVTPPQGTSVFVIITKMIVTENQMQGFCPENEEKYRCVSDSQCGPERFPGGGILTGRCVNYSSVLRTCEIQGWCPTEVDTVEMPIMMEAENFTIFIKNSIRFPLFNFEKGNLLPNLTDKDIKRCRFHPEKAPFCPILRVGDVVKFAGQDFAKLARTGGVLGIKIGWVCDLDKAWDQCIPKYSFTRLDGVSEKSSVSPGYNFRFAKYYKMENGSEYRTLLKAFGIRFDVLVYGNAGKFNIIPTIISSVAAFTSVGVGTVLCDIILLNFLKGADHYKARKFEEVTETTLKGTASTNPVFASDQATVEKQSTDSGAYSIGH

P2X2 receptors [2] = target: T2, P2X2 receptors (Rattus norvegicus, UniProt P49653); conditions: agonist activation; cited from earlier work
T2 construct: In the membranes of dorsal root ganglia, along with P2X3 receptors, P2X2 and P2X2/3 receptors are also found; endogenous in cells; host or cells: acutely isolated dorsal root ganglion neurons of 9-12-day Wistar rats
T2 sequence (P49653 1-472): T1 sequence (P49653 1-472)

P2X2/3 receptors [3] = target: T1, P2X2/3 receptors; experiment: Whole-cell patch clamp of P2X2/3-mediated currents in rat dorsal root ganglia neurons; assay type: cell-based; conditions: PT6 50 nM (FIG. 2)
Protocol: (§1) In the membranes of dorsal root ganglia, along with P2X3 receptors, P2X2 and P2X2/3 receptors are also found [Burgard E. C. et al. P2X receptor-mediated ionic currents in dorsal root ganglion neurons//J. Neurophysiol., 1999, V. 82, P. 1590-1598]. The time for exit of P2X3 receptors from desensitization is very large compared to P2X2 and P2X2/3 receptors. With the agonist application for 1 min, all observed responses, except for the first, are mediated by P2X2 and P2X2/3 receptors. The sensitivity of P2X2/3 receptor to ATP and α,β-methylene-ATP is similar (Kd ˜30 μM), and the minimal concentration of α,β-methylene-ATP necessary for activation of P2X2 receptors is at least 100 μM. The equivalence of ionic currents observed in response to consecutive application of ATP and α,β-methylene-ATP indicates a significant predominance of P2X2/3 receptors on the cell membrane. In cells, which generate ionic currents of various amplitude, i.e. greater in response to ATP application, and very low in response to application of α,β-methylene-ATP, the membrane contains mainly P2X2 receptors. […] Therefore, it has been established suddenly that peptide PT6 acts selectively on the receptors of P2X3 isoform and is a selective antagonist of purinergic P2X3 receptors.

P2X2 receptors [4] = target: T2, P2X2 receptors; experiment: Whole-cell patch clamp of P2X2-mediated currents in rat dorsal root ganglia neurons; assay type: cell-based; conditions: PT6 50 nM (FIG. 2)
Protocol: as §1

P2X3 receptors = P2X3 receptors (Rattus norvegicus, UniProt P49654); conditions: PT6 50 nM; rat sensory (dorsal root ganglia) neurons; agonist CTP 100 μM; holding potential −60 mV
Protocol: Neurons for the experiments are isolated from dorsal root ganglia of 9-12-day Wistar rats. The ganglia are placed to a Petri dish filled with the extracellular solution (130 mM NaCl, 5 mM KCl, 2 mM CaCl2, 2 mM MgCl2, 20 mM HEPES, pH 7.4) at room temperature, and then transferred to the enzyme solution (1 mg of trypsin and 2 mg of collagenase in 2 ml of the extracellular solution) heated up to 35° C., and incubated for 10 min. Then the ganglia are rinsed thoroughly with a pure (without enzymes) extracellular solution in another Petri dish. Single cells are isolated from the rinsed ganglia using fine needles. A dish with single cells is transferred to the electrophysiological unit. The experiments begin after all cells are settled to the dish bottom in 30 min after isolation.
Electrophysiological tests are performed using the whole-cell configuration of the classic method of patch clamp and the approach of a rapid application of a substance (agonist), which binds to P2X3 receptors and induces ion channel opening. The electrophysiological setup consists of three parts: microscope; sample application system (“jumping table”; Pharma Robot, Ukraine); and recording system of the current flowing through channels in the cell plasma membrane. […] Currents are recorded at the holding potential of −60 mV and room temperature with a Model 2400 Patch Clamp Amplifier (A-M Systems, USA). […]

Row | Compound | Kd (P2X2/3 receptors [1]) | minimal concentration necessary for activation of P2X2 receptors (P2X2 receptors [2]) | effect on ionic currents mediated by P2X2/3 receptors (P2X2/3 receptors [3]) | effect on ionic currents mediated by P2X2 receptors (P2X2 receptors [4]) | decrease of the current amplitude mediated by P2X3 receptors (inhibition of currents) (P2X3 receptors)
1 | Nc1ncnc2c1ncn2[C@@H]1O[C@H](COP(=O)(O)OP(=O)(O)OP(=O)(O)O)[C@@H](O)[C@H]1O [ATP, adenosine triphosphate] | ~30 µM |  |  |  | 
2 | Nc1ncnc2c1ncn2[C@@H]1O[C@H](COP(=O)(O)CP(=O)(O)OP(=O)(O)O)[C@@H](O)[C@H]1O [α,β-methylene-ATP] | ~30 µM | at least 100 μM |  |  | 
3 | GYCATKGIKCNDIHCCSGLKCDSKRKVCVKG (cysteine pairing not given here) [PT6] |  |  | does not affect | does not affect | 80%
